Data taken from the NIST ThermoML archive (doi:10.1016/j.jct.2005.03.020).

Legend:
[1] = refractive index (Na D-line) (dimensionless); details: 298.15 K; 101.33 kPa; Liquid; Standard Abbe refractometry
[2] = 298.15 K; 101.33 kPa; Liquid
[3] = excess molar enthalpy (molar enthalpy of mixing); xn = mol fraction of the nth substance listed; details: 298.15 K, 101.33 kPa, Liquid
[4] = xn = mol fraction of the nth substance listed; details: 298.15 K, 101.33 kPa, Liquid

CCOC(=O)CC [ethyl propanoate]
Details	mass density [kg/m3]	refractive index
[1]	–	1.3815
[2]	884.02	–

ClCCCCCCl [1,5-dichloropentane] + CCCC(=O)OCC
Details	excess molar enthalpy [kcal/mol]	mass density [kg/m3]
[3], x2 = 0.0571	-0.00196	–
[3], x2 = 0.1213	-0.00643	–
[3], x2 = 0.1884	-0.012	–
[3], x2 = 0.2532	-0.0176	–
[3], x2 = 0.3155	-0.0235	–
[3], x2 = 0.3746	-0.0297	–
[3], x2 = 0.4289	-0.0361	–
[3], x2 = 0.478	-0.0416	–
[3], x2 = 0.5235	-0.0442	–
[3], x2 = 0.5576	-0.0456	–
[3], x2 = 0.5639	-0.0459	–
[3], x2 = 0.6129	-0.0461	–
[3], x2 = 0.6726	-0.0449	–
[3], x2 = 0.736	-0.0402	–
[3], x2 = 0.8047	-0.0329	–
[3], x2 = 0.8728	-0.0236	–
[3], x2 = 0.9406	-0.0114	–
[4], x2 = 0.0569	–	1082.35
[4], x2 = 0.1136	–	1069.48
[4], x2 = 0.171	–	1056.53
[4], x2 = 0.2286	–	1043.61
[4], x2 = 0.2917	–	1029.5
[4], x2 = 0.3489	–	1016.71
[4], x2 = 0.4084	–	1003.45
[4], x2 = 0.4653	–	990.76
[4], x2 = 0.5243	–	977.72
[4], x2 = 0.5825	–	964.82
[4], x2 = 0.6411	–	951.9
[4], x2 = 0.7595	–	925.89
[4], x2 = 0.8188	–	912.92
[4], x2 = 0.8799	–	899.6
[4], x2 = 0.9403	–	886.46

ClCCCCCCl [1,5-dichloropentane] + CCCCC(=O)OCC
Details	excess molar enthalpy [kcal/mol]	mass density [kg/m3]
[3], x2 = 0.0481	-0.00244	–
[3], x2 = 0.1066	-0.00762	–
[3], x2 = 0.1663	-0.0128	–
[3], x2 = 0.228	-0.0206	–
[3], x2 = 0.2876	-0.0279	–
[3], x2 = 0.3438	-0.0357	–
[3], x2 = 0.3973	-0.0434	–
[3], x2 = 0.416	-0.0465	–
[3], x2 = 0.4433	-0.0493	–
[3], x2 = 0.4786	-0.0512	–
[3], x2 = 0.5288	-0.0522	–
[3], x2 = 0.5848	-0.0517	–
[3], x2 = 0.6478	-0.05	–
[3], x2 = 0.7165	-0.0433	–
[3], x2 = 0.7867	-0.0365	–
[3], x2 = 0.8597	-0.0264	–
[3], x2 = 0.9325	-0.0137	–
[4], x2 = 0.1036	–	1068.61
[4], x2 = 0.1561	–	1055.46
[4], x2 = 0.2082	–	1042.59
[4], x2 = 0.2623	–	1029.48
[4], x2 = 0.3179	–	1016.24
[4], x2 = 0.3785	–	1002.01
[4], x2 = 0.4369	–	988.54
[4], x2 = 0.4943	–	975.55
[4], x2 = 0.5534	–	962.34
[4], x2 = 0.6141	–	949.06
[4], x2 = 0.6755	–	935.8
[4], x2 = 0.7367	–	922.8
[4], x2 = 0.8008	–	909.43
[4], x2 = 0.8658	–	896.13
[4], x2 = 0.9318	–	882.79

CCCC(=O)OCC [ethyl butanoate] + ClCCCl
Details	excess molar enthalpy [kcal/mol]	mass density [kg/m3]
[3], x1 = 0.0372	-0.00574	–
[3], x1 = 0.0865	-0.016	–
[3], x1 = 0.1386	-0.0291	–
[3], x1 = 0.1921	-0.0436	–
[3], x1 = 0.2431	-0.0589	–
[3], x1 = 0.2939	-0.0737	–
[3], x1 = 0.3419	-0.0863	–
[3], x1 = 0.388	-0.0979	–
[3], x1 = 0.4274	-0.105	–
[3], x1 = 0.4838	-0.109	–
[3], x1 = 0.5489	-0.11	–
[3], x1 = 0.5825	-0.108	–
[3], x1 = 0.6236	-0.104	–
[3], x1 = 0.7068	-0.0906	–
[3], x1 = 0.7989	-0.0682	–
[3], x1 = 0.8971	-0.0405	–
[3], x1 = 0.9325	-0.0292	–
[4], x1 = 0.0378	–	1221.95
[4], x1 = 0.075	–	1199.86
[4], x1 = 0.1149	–	1177.55
[4], x1 = 0.1568	–	1155.49
[4], x1 = 0.198	–	1134.78
[4], x1 = 0.2425	–	1113.63
[4], x1 = 0.2957	–	1089.91
[4], x1 = 0.3476	–	1068.19
[4], x1 = 0.4019	–	1046.72
[4], x1 = 0.46	–	1025.2
[4], x1 = 0.5234	–	1003.08
[4], x1 = 0.5887	–	981.85
[4], x1 = 0.6583	–	960.62
[4], x1 = 0.7338	–	939.07
[4], x1 = 0.8138	–	917.85
[4], x1 = 0.9027	–	895.87

ClCCCl [1,2-dichloroethane]
Details	mass density [kg/m3]	refractive index
[1]	–	1.442
[2]	1245.65	–
